Values after ≈ are worked out from the molar mass of the structure shown.
Experiments:
[1] = test system: Enterococcus faecalis 2041; assay: Broth micro-dilution MIC; assay type: cell-based; settings: BHI medium
Procedure: (§1) The compounds of the present invention have in vitro activity against Gram-positive pathogenic bacteria. The antibacterial activity of the present compounds is illustrated in Tables III and IV. The minimal inhibitory concentrations (MICs) were determined using a standard broth micro-dilution assay. Table IV presents a comparison of the activity of illustrative compounds against representative vancomycin-resistant and vancomycin-sensitive enterococci (Enterococcus faecium and Enterococcus faecalis), mean geometric MIC (mcg/mL), as determined by the standard broth microdilution assay.
(§2) Assays for antimicrobial activity were performed using microbroth susceptibility testing methods as described by the NCCLS (National Committee for Clinical Laboratories Standards. 1990. Approved standard M7-A2. Methods for dilution antimicrobial susceptibility testing for bacteria that grow aerobically, 2 ed., Villanova Pa.). Brain-heart infusion medium (BHI) was used for testing of enterococci, and NCCLS recommendations for medium were followed for other bacteria.

[2] = test system: Enterococcus faecalis 276; assay: Broth micro-dilution MIC; assay type: cell-based; settings: BHI medium
Procedure: as §1, §2

[3] = test system: Enterococcus faecium 180-1; assay: Broth micro-dilution MIC; assay type: cell-based; settings: BHI medium
Procedure: as §1, §2

[4] = test system: Enterococcus faecium 180; assay: Broth micro-dilution MIC; assay type: cell-based; settings: BHI medium
Procedure: as §1, §2

[5] = test system: Enterococcus gallinarum 245; assay: Broth micro-dilution MIC; assay type: cell-based; settings: BHI medium
Procedure: as §1, §2

[6] = test system: Escherichia coli EC14; assay: Broth micro-dilution MIC; assay type: cell-based
Procedure: as §1, §2

[7] = test system: Haemophilus influenzae RD; assay: Broth micro-dilution MIC; assay type: cell-based
Procedure: as §1, §2

[8] = test system: Staphylococcus aureus 446; assay: Broth micro-dilution MIC; assay type: cell-based
Procedure: as §1, §2

[9] = test system: Staphylococcus aureus 447; assay: Broth micro-dilution MIC; assay type: cell-based
Procedure: as §1, §2

[10] = test system: Staphylococcus aureus 489; assay: Broth micro-dilution MIC; assay type: cell-based
Procedure: as §1, §2

[11] = test system: Staphylococcus aureus 491; assay: Broth micro-dilution MIC; assay type: cell-based
Procedure: as §1, §2

[12] = test system: Staphylococcus aureus S13E; assay: Broth micro-dilution MIC; assay type: cell-based
Procedure: as §1, §2

[13] = test system: Staphylococcus aureus SA1199A; assay: Broth micro-dilution MIC; assay type: cell-based
Procedure: as §1, §2

[14] = test system: Staphylococcus aureus SA1199B; assay: Broth micro-dilution MIC; assay type: cell-based
Procedure: as §1, §2

[15] = test system: Staphylococcus aureus SA1199; assay: Broth micro-dilution MIC; assay type: cell-based
Procedure: as §1, §2

[16] = test system: Staphylococcus aureus X400; assay: Broth micro-dilution MIC; assay type: cell-based
Procedure: as §1, §2

[17] = test system: Staphylococcus aureus X778; assay: Broth micro-dilution MIC; assay type: cell-based
Procedure: as §1, §2

[18] = test system: Staphylococcus epidermidis 270; assay: Broth micro-dilution MIC; assay type: cell-based
Procedure: as §1, §2

[19] = test system: Staphylococcus haemolyticus 105; assay: Broth micro-dilution MIC; assay type: cell-based
Procedure: as §1, §2

[20] = test system: Staphylococcus haemolyticus 415; assay: Broth micro-dilution MIC; assay type: cell-based
Procedure: as §1, §2

[21] = test system: Streptococcus pneumoniae P1; assay: Broth micro-dilution MIC; assay type: cell-based
Procedure: as §1, §2

[22] = test system: Streptococcus pyogenes C203; assay: Broth micro-dilution MIC; assay type: cell-based
Procedure: as §1, §2

[23] = test system: vancomycin-resistant enterococci; assay: In vitro activity against enterococci, broth microdilution; assay type: cell-based, Enterococcus faecium and Enterococcus faecalis; settings: representative vancomycin-resistant enterococci (E. faecium and E. faecalis); BHI medium
Procedure: as §1, §2

[24] = test system: vancomycin-sensitive enterococci; assay: as above; assay type: cell-based, Enterococcus faecium and Enterococcus faecalis; settings: representative vancomycin-sensitive enterococci (E. faecium and E. faecalis); BHI medium
Procedure: as §1, §2

## CNC(CC(C)C)C(=O)NC1C(=O)NC(CC(N)=O)C(=O)NC2C(=O)NC3C(=O)NC(C(=O)NC(C(=O)O)c4cc(O)cc(O)c4-c4cc3ccc4O)C(OC3CC(C)(N)C(O)C(C)O3)c3ccc(c(Cl)c3)Oc3cc2cc(c3OC2OC(CO)C(O)C(O)C2OC2CC(C)(NC(=O)c3ccc(-c4ccccc4)cc3)C(O)C(C)O2)Oc2ccc(cc2Cl)C1O (stereo not drawn) [Example 1]
[1]
  MIC: 0.125 µg/mL (≈ 0.0705 µM)
[2]
  MIC: 0.5 µg/mL (≈ 0.282 µM)
[3]
  MIC: ≦.06 μg/ml
[4]
  MIC: 0.25 µg/mL (≈ 0.141 µM)
[5]
  MIC: 8 µg/mL (≈ 4.51 µM)
[6]
  MIC: >64 µg/mL
[7]
  MIC: >64 µg/mL
[8]
  MIC: 2 µg/mL (≈ 1.13 µM)
[9]
  MIC: 16 µg/mL (≈ 9.03 µM)
[10]
  MIC: 0.5 µg/mL (≈ 0.282 µM)
[11]
  MIC: 0.25 µg/mL (≈ 0.141 µM)
[12]
  MIC: 2 µg/mL (≈ 1.13 µM)
[13]
  MIC: 0.125 µg/mL (≈ 0.0705 µM)
[14]
  MIC: 2 µg/mL (≈ 1.13 µM)
[15]
  MIC: 2 µg/mL (≈ 1.13 µM)
[16]
  MIC: 1 µg/mL (≈ 0.564 µM)
[17]
  MIC: 1 µg/mL (≈ 0.564 µM)
[18]
  MIC: 16 µg/mL (≈ 9.03 µM)
[19]
  MIC: 1 µg/mL (≈ 0.564 µM)
[20]
  MIC: 8 µg/mL (≈ 4.51 µM)
[21]
  MIC: ≦.06 μg/ml
[22]
  MIC: ≦.06 μg/ml
[23]
  Mean geometric MIC, Vancomycin Resistant Strains: 11.3 µg/mL
[24]
  Mean geometric MIC, Vancomycin Sensitive Strains: 0.38 µg/mL

## CNC(CC(C)C)C(=O)NC1C(=O)NC(CC(N)=O)C(=O)NC2C(=O)NC3C(=O)NC(C(=O)NC(C(=O)O)c4cc(O)cc(O)c4-c4cc3ccc4O)C(OC3CC(C)(N)C(O)C(C)O3)c3ccc(c(Cl)c3)Oc3cc2cc(c3OC2OC(CO)C(O)C(O)C2OC2CC(C)(NC(=O)c3ccc(-c4ccc(Cl)cc4)cc3)C(O)C(C)O2)Oc2ccc(cc2Cl)C1O (stereo not drawn) [Example 4]
[1]
  MIC: ≦.06 μg/ml
[2]
  MIC: 0.125 µg/mL (≈ 0.0692 µM)
[3]
  MIC: ≦.06 μg/ml
[4]
  MIC: ≦.06 μg/ml
[5]
  MIC: 4 µg/mL (≈ 2.21 µM)
[6]
  MIC: >64 µg/mL
[7]
  MIC: 0.25 µg/mL (≈ 0.138 µM)
[8]
  MIC: 1 µg/mL (≈ 0.553 µM)
[9]
  MIC: 4 µg/mL (≈ 2.21 µM)
[10]
  MIC: 0.25 µg/mL (≈ 0.138 µM)
[11]
  MIC: 0.5 µg/mL (≈ 0.277 µM)
[12]
  MIC: 0.5 µg/mL (≈ 0.277 µM)
[13]
  MIC: 0.25 µg/mL (≈ 0.138 µM)
[14]
  MIC: 0.5 µg/mL (≈ 0.277 µM)
[15]
  MIC: 0.5 µg/mL (≈ 0.277 µM)
[16]
  MIC: 0.25 µg/mL (≈ 0.138 µM)
[17]
  MIC: 0.25 µg/mL (≈ 0.138 µM)
[18]
  MIC: 2 µg/mL (≈ 1.11 µM)
[19]
  MIC: 1 µg/mL (≈ 0.553 µM)
[20]
  MIC: 4 µg/mL (≈ 2.21 µM)
[21]
  MIC: 0.125 µg/mL (≈ 0.0692 µM)
[22]
  MIC: 0.125 µg/mL (≈ 0.0692 µM)
[23]
  Mean geometric MIC, Vancomycin Resistant Strains: 3.4 µg/mL
[24]
  Mean geometric MIC, Vancomycin Sensitive Strains: 0.093 µg/mL

## CNC(CC(C)C)C(=O)NC1C(=O)NC(CC(N)=O)C(=O)NC2C(=O)NC3C(=O)NC(C(=O)NC(C(=O)O)c4cc(O)cc(O)c4-c4cc3ccc4O)C(OC3CC(C)(NC(=O)c4ccc(-c5ccccc5)cc4)C(O)C(C)O3)c3ccc(c(Cl)c3)Oc3cc2cc(c3OC2OC(CO)C(O)C(O)C2OC2CC(C)(N)C(O)C(C)O2)Oc2ccc(cc2Cl)C1O (stereo not drawn) [Example 2]
[1]
  MIC: 1 µg/mL (≈ 0.564 µM)
[2]
  MIC: 1 µg/mL (≈ 0.564 µM)
[3]
  MIC: 1 µg/mL (≈ 0.564 µM)
[4]
  MIC: 32 µg/mL (≈ 18.1 µM)
[5]
  MIC: >64 µg/mL
[6]
  MIC: >64 µg/mL
[7]
  MIC: >64 µg/mL
[8]
  MIC: 8 µg/mL (≈ 4.51 µM)
[9]
  MIC: 32 µg/mL (≈ 18.1 µM)
[10]
  MIC: 0.5 µg/mL (≈ 0.282 µM)
[11]
  MIC: 1 µg/mL (≈ 0.564 µM)
[12]
  MIC: 4 µg/mL (≈ 2.26 µM)
[13]
  MIC: 1 µg/mL (≈ 0.564 µM)
[14]
  MIC: 2 µg/mL (≈ 1.13 µM)
[15]
  MIC: 4 µg/mL (≈ 2.26 µM)
[16]
  MIC: 2 µg/mL (≈ 1.13 µM)
[17]
  MIC: 2 µg/mL (≈ 1.13 µM)
[18]
  MIC: 32 µg/mL (≈ 18.1 µM)
[19]
  MIC: 2 µg/mL (≈ 1.13 µM)
[20]
  MIC: >64 µg/mL
[21]
  MIC: ≦.06 μg/ml
[22]
  MIC: ≦.06 μg/ml
[23]
  Mean geometric MIC, Vancomycin Resistant Strains: >25 µg/mL
[24]
  Mean geometric MIC, Vancomycin Sensitive Strains: 0.38 µg/mL

Reference: patent US7365053B2, “Selective N-acylation of A82846 glygopeptides analogs” (priority 2000, dated 2008)
